We go through 12 substances from patent publication US9617324B2, “Ameliorating agent for blood-brain barrier dysfunction” (Nagasaki University, priority 2012, dated 2017).

The subject of data set [1] is thrombotic cerebral infarction PIT model.
For another data set, the system named is proMMP-9. Put plainly: Gelatin zymography of proMMP-9 activity after retinal ischemia. The class given is in vivo, mouse. Particulars: 1 pmol. From the text: It is known that a tight junction protein, occluding, is degraded by metalloproteinases (MMP) whose expression is increased by ischemia (J Cereb Blood Flow Metab, 2007. 27(4): p. 697-709). It is believed that MMP-9, in particular, plays a primary role in a failure of a blood-organ barrier by ischemia (J Cereb Blood Flow Metab, 2000. 20(12): p. 1681-9).
The expression level of MMP-9 is commonly low and the expression is derived by various stimuli by ischemia.

For data set [2], the system named is tMCAO model (ischemia for 4 hours), tPA-induced cerebral hemorrhage.
Procedure: Mice were anesthetized with 3% isoflurane (Escain (registered trademark), Mylan Seiyaku Ltd., Tokyo, Japan) (Small animal anesthetizer MK-A100, Muromachi Kikai Co., Ltd., Tokyo, Japan). On a constant-temperature table at 37° C. (Ikemoto Scientific Technology Co., Ltd., Tokyo, Japan), the skin in the pharyngeal region is cut lengthwise into about 2 cm with scissors. The skin was drawn to the right using a hard silk thread (hard No. 8, Natsume Seisakusho Co., Ltd.) to secure a visual field. Using a stereoscopic microscope, the left common carotid artery which is located on the left side of the trachea is secured with a hard silk thread while exfoliating connective tissue, nerves and the like. By following the common carotid artery upward, the artery is separated into the internal carotid artery and the external carotid artery, and the external carotid artery on the left near side is tightly tied at two points with a soft silk thread and the space between the points is cut. A thin vessel extending upward from the internal carotid artery is secured with a soft silk thread. The soft silk thread and hard silk thread are strongly drawn to stop blood flow and an incision is made in the internal carotid artery with scissors. From that, an obturator is inserted 1 to 1.5 cm and the middle cerebral artery is occluded. The internal carotid artery was tied together with the obturator using a soft silk thread to fix the obturator. A soft silk thread is passed under the hard silk thread drawing and the common carotid artery is tied thereby on the near side of the hard silk thread, and the hard silk thread is then removed. The breath is sutured at two points with a soft silk thread. In the case of the model of transient middle cerebral artery occlusion (tMCAO) of the present problem, anesthesia was applied to the mice with 3% isoflurane again after an hour or 4 hours on a constant-temperature table at 37° C., and the soft silk thread suturing the breath is untied to open the breath. The soft silk thread tying the internal carotid artery was loosened and the obturator was withdrawn, and the internal carotid artery was immediately tied again.
The test system of data set [3] is tMCAO model (ischemia for 4 hours), tPA-induced motor dysfunction. Put plainly: tMCAO for four hours with tPA: clinical score and mortality after a day. It counts as in vivo, mouse. Particulars: for death of mice: 10 mg/kg peptide with tPA after 4 hours of tMCAO ischemia. The procedure: After tMCAO for four hours, the clinical score and mortality rate were evaluated after a day (FIG. 8). […] The tMCAO for four hours corresponds to the state after 3 hours from the onset of ischemic diseases.
(§1) To evaluate the degree of motor function disorders associated with cerebral ischemia, the neurological scores (Clinical Scores) according to the following definition were used. In addition, two grade evaluation was carried out using numerical values 1 to 4 (when scores 1 and 2 were shown, 1.5 was used).
(§2) 1: motor function disorders of the right front limb, 2: one-directional behavior, 3: unable to hold the position and incline, 4: disappearance of spontaneous movement, and 5: death.

The subject of data set [4] is thrombotic cerebral infarction PIT model. Briefly: PIT model: damaged cerebral region by TTC staining. Particulars: for damaged cerebral region by TTC staining: second Example 13. The class given is in vivo, mouse.
Data set [5] relates to model mice of cerebral ischemia (tMCAO). Briefly: tMCAO (ischemia for an hour, reperfusion) model, clinical scores of motor dysfunction. It counts as in vivo, mouse. Particulars: for protective effect on motor dysfunction: i.v. after an hour after ischemia, 1 to 10 mg/kg. The procedure: The model mice of cerebral ischemia produced by left middle cerebral artery occlusion in C57BL/J6 mice were maintained for an hour, followed by reperfusion. P30 (1 mg/kg or 3 mg/kg) or P6 (1 mg/kg) was administered into the caudal vein after an hour of reperfusion. Thereafter, the course of the mice was observed every 24 hours to evaluate motor function and existence. The clinical scores showing motor dysfunction are evaluated using the following five grades: 1: unable to completely extend the right front limb, 2: clockwise circling behavior, 3: unable to hold the position and incline to the right, 4: disappearance of spontaneous movement, and 5: death.
In FIG. 5, the data indicated by white squire indicate values when 0.1% DMSO in PBS (vehicle) was administered into the caudal vein in an amount of 100 μl/10 g after an hour of tMCAO for an hour. […] Black circle and black rhombus in the upper graph indicate the results of 1 mg/kg and 3 mg/kg P30 intravenous (i.v.) administration, respectively, and black circle in the lower graph indicates the results of 1 mg/kg P6 intravenous (i.v.) administration.
as §1, §2

Setting [6] is: second Example 13, peptide in combination with tPA, peptide dose not given.
The mark [7] stands for this setting: peptide in combination with tPA, peptide dose not given.

Entries after “also recorded” stand apart in the source; their conditions may differ. Read-outs that look alike come from different tables or passages of the source. No end group written: not given here.

As for “Ac-NEVDEE-NH2 [Peptide F, N-acetyl-P6-amide]”, the Clinical score in data set [1] (setting [6]) is recorded as 1.2±0.2. The “increase in activity of proMMP-9 by ischemia” value in the data set with proMMP-9 is reported as “effect equal to that of P6”.
As for NEVDEE [Peptide P6, NEVDEE], the cerebral hemorrhage result in data set [2] (mouse, in vivo) is given as “trend to exacerbate cerebral hemorrhage”.
In the case of NEVDEE-NH2 [Peptide E, NEVDEE-NH2], the death of mice result in data set [3] was “all mice were died”.
For NEVDQE [Peptide A, NEVDQE], the “hemorrhage in the cerebral cortex region” value in data set [2] (mouse, in vivo, iv, 1 mg/kg) amounted to 0.09±0.01 mm^2; in data set [2] (mouse, in vivo, iv, 3 mg/kg), 0.06±0.01 mm^2; in data set [2] (mouse, in vivo, iv, 10 mg/kg) it was 0.08±0.01 mm^2.
Turning to “Peptide L: P6 derivative peptide (NEIDEE)”, the Clinical score in data set [1] (setting [6]) is on record as 1.3±0.2. Further, the “damaged cerebral region by TTC staining” value in data set [4] (setting [7]) stood at 46±5.6%.
Taken in the same sequence, the figures for “Peptide P: P6 derivative peptide (EEVNEE)” were 1.1±0.1 and 47±5.1%.
For the substance “Peptide Q: P6 derivative peptide (EEVDQE)”, in data set [1] (setting [6]), the Clinical score is 1.7±0.5. Besides, the “damaged cerebral region by TTC staining” value in data set [4] (setting [7]) is on record as 55±1.4%.
Regarding “Peptide R: P6 derivative peptide (EEVDQE)”, the Clinical score in data set [1] (setting [6]) is recorded as 1.1±0.1. In addition, the “damaged cerebral region by TTC staining” value in data set [4] (setting [7]) amounted to 54±4.5%.
The corresponding values for “Peptide S: P6 derivative peptide (EEVDEE)” are 1.1±0.2 and 51±5.7%.
“pEEVDEE (not fully specified (residue 1); listed as Homo sapiens) [Peptide D, P6 derivative peptide]”: the death of mice result in data set [3] is listed as “all mice were died”. Besides, the Clinical score in data set [1] (setting [6]) is recorded as 1±0. Moreover, the “protective effect on motor dysfunction” value in data set [5] is “not as good as that of Peptide A and Peptide B”. For the same substance, the “damaged cerebral region by TTC staining” value in data set [4] (setting [7]) came out at 52±7.2%.
As for “pEEVNEE (not fully specified (residue 1); listed as Homo sapiens) [Peptide B, P6 derivative peptide]”, the “tPA-induced exacerbation of motor dysfunction” value in data set [3] (10 mg/kg peptide coadministered i.v. with tPA, 24 hours after ischemia) is given as “tended to inhibit”. For the same substance, in data set [1] (setting [6]), the Clinical score is 1±0. Besides, in data set [2] (10 mg/kg peptide coadministered with tPA), the tPA-induced cerebral hemorrhage entry is given as “did not have an influence”. Besides, the “protective effect on motor dysfunction” value in data set [5] was “dose-dependently protective effect on motor dysfunction; also recorded: high protective activity”. Also, the “dose showing the (greatest) protective effect on motor dysfunction” value in data set [5] (i.v., tMCAO 60 min ischemia) amounted to 10 mg/kg. Also, the “damaged cerebral region by TTC staining” value in data set [4] (setting [7]) turned out to be 42±6.1%.
For “tPA: thrombolytic agent, tissue plasminogen activator, purchased from Kyowa Hakko Kirin Co., Ltd. [reference compound]”, the “mortality rate after a day of ischemia” value in data set [3] (10 mg/kg tPA alone) amounted to 35.7%. Further, the “motor dysfunction (clinical score) after a day” value in data set [3] (10 mg/kg tPA alone, immediately before reperfusion) is reported as “deteriorated”. The “motor dysfunction score after a day” value in data set [3] (10 mg/kg tPA treatment, tMCAO ischemia for 4 hours, score 2 without tPA) came out at 3.5. Also, the Clinical score was determined as 1.5±0.2 in data set [1] (Example 12, tPA-alone after 6 hours of PIT treatment) and 1.4±0.1 in data set [1] (second Example 13, tPA alone after 6 hours of PIT treatment). Also, the hemorrhagic region in data set [2] (mouse, in vivo, iv, 10 mg/kg) worked out at 0.7±0.2 mm^2. Besides, in data set [4] (tPA alone after 6 hours of PIT treatment), the “damaged cerebral region by TTC staining” value is listed as 44±2.6%. The “protective effect (infarct region)” value in data set [4] (tPA administered after 6 hours of ischemia) was “the protective effect was not confirmed”; in data set [4] (tPA treatment time delayed (2 to 4 hours)) it was “protective effect was reduced”. Besides, the infarct region entry in data set [4] (tPA treatment after an hour after thrombus formation) is on record as “significant decrease in the infarct region”.
